Structures are written as SMILES. Where only a bound is given, the exact number is not on record here.

The target in series [1] is IRAK4 (Homo sapiens (Human), UniProt Q9NWZ3). The series can be described thus: IRAK4 Inhibition Assay. The conditions noted are these: ATP 500 μM; IRAK4 0.6 nM. Format: biochemical. The method, boiled down:
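Mobility-shift readout: phosphorylated and unphosphorylated fluorescent peptide (1.5 μM) resolved by electrophoresis after a 60 min room-temperature reaction stopped with EDTA. Reaction holds 0.6 nM IRAK4, 500 μM ATP and 1.6% DMSO in HEPES pH 7.2/MgCl2/Brij 35/DTT buffer; percent inhibition set against vehicle and no-enzyme controls.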

The nature of series [2]: Caco Permeability Assay. It is filed as in vitro ADME. Conditions: human, Caco-2, Caco-2 cells, 3 μM compound. The method, then:
Thirteen to 27 days prior to assay, Caco-2 cells were seeded onto collagen-coated polycarbonate filter membranes in 24-well transwell plates at a density of 1.45×10^5 cells/cm^2, approximately 4.8×10^4 cells per well. The cells were grown in a culture medium consisting of DMEM supplemented with 10% fetal bovine serum, 10 mM HEPES, 1% nonessential amino acids, 2 mM L-glutamine, 100 U/mL penicillin-G, and 100 μg/mL streptomycin. The culture medium was replaced every 3 days and the cells were maintained at 37° C. in a 95% relative humidity and 5% CO2 atmosphere. The cells were evaluated for tight junction formation just prior to assay. The test compound was solubilized to 10 mM in 100% DMSO and diluted to 3 μM in assay buffer. Permeability studies were initiated by adding 200 μL assay buffer plus/minus compound to the apical transwell compartment and 600 μL assay buffer plus/minus compound to the basolateral compartment of the 24-well transwell low-binding cluster plate. For apical-to-basolateral (A to B) permeability (absorptive direction), buffer containing compound was placed in the apical compartment (donor wells), while buffer alone was placed in the corresponding basolateral compartments (receiver wells). For basolateral-to-apical (B to A) permeability (secretive direction), buffer containing compound was placed in the basolateral compartment (donor wells), while buffer alone was placed in the corresponding apical compartments (receiver wells). Transwells were then incubated for 2 hours at 37° C. in a 95% relative humidity and 5% CO2 atmosphere with gentle agitation. Following incubation, 100 μL was removed from each apical and basolateral compartment and transferred to 96-well low binding plates that had been previously loaded with 100 µL/well of acetonitrile containing 250 nM propranolol, 250 nM diclofenac, and 500 nM tolbutamide as internal standards. The samples were subsequently analyzed by LC-MS/MS to determine concentrations of compound.

Series [3] concerns IL-6 levels in human whole blood stimulated with a TLR2 agonist. The series can be described thus: IRAK4 Whole Blood Assay (lipoteichoic acid/TLR2-stimulated IL-6). Conditions: lipoteichoic acid 10 μg/mL, IL-6 readout. Format: cell-based. The method, boiled down:
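ACD-A-anticoagulated human whole blood was preincubated with compounds for 60 min at 37 °C under 5% CO2. It was then stimulated with 10 μg/mL lipoteichoic acid (final) in RPMI for 5 h. IL-6 in plasma supernatants was measured by flow cytometry bead assay.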

IRAK4, sequence (Q9NWZ3 whole entry): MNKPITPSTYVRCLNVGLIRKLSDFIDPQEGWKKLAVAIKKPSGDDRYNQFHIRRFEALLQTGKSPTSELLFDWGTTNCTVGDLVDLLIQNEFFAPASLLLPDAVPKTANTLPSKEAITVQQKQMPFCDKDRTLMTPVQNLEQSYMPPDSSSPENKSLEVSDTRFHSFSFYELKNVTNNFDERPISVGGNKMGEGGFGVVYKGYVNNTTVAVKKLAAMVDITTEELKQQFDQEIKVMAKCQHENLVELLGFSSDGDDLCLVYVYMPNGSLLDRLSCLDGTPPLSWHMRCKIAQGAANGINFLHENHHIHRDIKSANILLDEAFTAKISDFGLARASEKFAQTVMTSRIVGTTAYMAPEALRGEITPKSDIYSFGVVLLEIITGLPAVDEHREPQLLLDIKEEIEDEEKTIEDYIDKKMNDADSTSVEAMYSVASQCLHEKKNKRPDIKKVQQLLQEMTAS

In the case of `CC(C)OC1CC(Nc2cc(-c3cnn4cc(Cl)cnc34)ncc2C(=O)NC[C@@H](F)C(C)(C)O)CC1(F)F` (single isomer, unassigned) [Example 15], the IC50 in series [1] was found to be 0.004 µM. This compound yielded a Papp at 2 h, 3 µM in series [2] of 6.5 ×10⁻⁶ cm/s. In series [3] (Homo sapiens), this compound came in with an EC50 of 0.66 µM.
In the case of `CC(C)(O)[C@H](F)CNC(=O)c1cnc(-c2cnn3cc(Cl)cnc23)cc1NC1COCC1(F)F` (single isomer, unassigned) [Example 19], the IC50 in series [1] was determined as 0.003 µM. Further, in series [2], the apparent permeability (Papp) at 2 h, 3 µM turned out to be 4.9 ×10⁻⁶ cm/s. Further, in series [3], the EC50 stood at 0.62 µM.
On to `CC(C)Nc1cc(-c2cnn3cc(Cl)cnc23)ncc1C(=O)NC[C@@H](F)C(C)(C)O` [Example 1, (R)-6-(6-chloropyrazolo[1,5-a]pyrimidin-3-yl)-N-(2-fluoro-3-hydroxy-3-methylbutyl)-4-(isopropylamino)nicotinamide], for which the IC50 in series [1] amounted to 0.003 µM. In addition, in series [2], the Papp at 2 h, 3 µM stood at 24.8 ×10⁻⁶ cm/s. This compound also displayed an EC50 in series [3] (Homo sapiens) of 0.4 µM.
For `CC(C)(O)c1cnc(Nc2cc(-c3cnn4cc(Cl)cnc34)ncc2C(=O)NC[C@@H](F)C(C)(C)O)s1` [Example 2, (R)-6-(6-chloropyrazolo[1,5-a]pyrimidin-3-yl)-N-(2-fluoro-3-hydroxy-3-methylbutyl)-4-((5-(2-hydroxypropan-2-yl)thiazol-2-yl)amino)nicotinamide], in series [1], the IC50 amounted to 0.008 µM. The compound further returned a Papp at 2 h, 3 µM in series [2] of under 1.5 ×10⁻⁶ cm/s. The compound also had an EC50 in series [3] (Homo sapiens) of 0.88 µM.
On to `CC(C)(O)[C@H](F)CNC(=O)c1cnc(-c2cnn3cc(Cl)cnc23)cc1NC1COC1` [Example 5, (R)-6-(6-chloropyrazolo[1,5-a]pyrimidin-3-yl)-N-(2-fluoro-3-hydroxy-3-methylbutyl)-4-(oxetan-3-ylamino)nicotinamide], for which the half-inhibitory concentration (IC50) in series [1] worked out at 0.003 µM. This compound displayed a Papp at 2 h, 3 µM in series [2] of 17.5 ×10⁻⁶ cm/s. The EC50 in series [3] (Homo sapiens) is 0.1 µM.
Take `CC(C)(O)[C@H](F)CNC(=O)c1cnc(-c2cnn3cc(Cl)cnc23)cc1NC1CC1` [Example 22, (R)-6-(6-chloropyrazolo[1,5-a]pyrimidin-3-yl)-4-(cyclopropylamino)-N-(2-fluoro-3-hydroxy-3-methylbutyl)nicotinamide]: in series [1], the IC50 came out at 0.002 µM. In series [2], the Papp at 2 h, 3 µM is 16.2 ×10⁻⁶ cm/s. In series [3] (Homo sapiens), this compound gave an EC50 of 11.1 µM.
On to `CC(=O)N[C@H]1CC[C@H](NC(=O)c2cnc(-c3cnn4cc(Cl)cnc34)cc2NC(C)C)CC1` [Example 23, N-((1r,4r)-4-acetamidocyclohexyl)-6-(6-chloropyrazolo[1,5-a]pyrimidin-3-yl)-4-(isopropylamino) nicotinamide], for which the half-maximal inhibitory concentration (IC50) in series [1] stood at 0.01 µM. The compound further displayed a Papp at 2 h, 3 µM in series [2] of 1.8 ×10⁻⁶ cm/s. Moreover, the response in series [3] (Homo sapiens) was half-maximal at 0.72 µM (EC50).
Take `CC(C)(O)[C@H](F)CNC(=O)c1cnc(-c2cnn3cc(Cl)cnc23)cc1NC1CCOCC1` [Example 30, (R)-6-(6-chloropyrazolo[1,5-a]pyrimidin-3-yl)-N-(2-fluoro-3-hydroxy-3-methylbutyl)-4-((tetrahydro-2H-pyran-4-yl)amino)nicotinamide]: in series [1], the IC50 came out at 0.004 µM. In series [2], this compound had a Papp at 2 h, 3 µM of 14.2 ×10⁻⁶ cm/s. In series [3] (Homo sapiens), the EC50 is 0.38 µM.
Taken in the same sequence, the figures for `C[C@@H](CO)Nc1cc(-c2cnn3cc(Cl)cnc23)ncc1C(=O)NC[C@@H](F)C(C)(C)O` [Example 31, 6-(6-chloropyrazolo[1,5-a]pyrimidin-3-yl)-N—((R)-2-fluoro-3-hydroxy-3-methylbutyl)-4-(((S)-1-hydroxypropan-2-yl)amino)nicotinamide] were 0.007 µM, under 1.5 ×10⁻⁶ cm/s and 0.14 µM.
For `C[C@@H](CF)Nc1cc(-c2cnn3cc(Cl)cnc23)ncc1C(=O)NC[C@@H](F)C(C)(C)O` [Example 32, 6-(6-chloropyrazolo[1,5-a]pyrimidin-3-yl)-N—((R)-2-fluoro-3-hydroxy-3-methylbutyl)-4-(((S)-1-fluoropropan-2-yl)amino)nicotinamide], the IC50 in series [1] was 0.004 µM. In addition, in series [2], the Papp at 2 h, 3 µM was determined as 24.1 ×10⁻⁶ cm/s. The compound also gave an EC50 in series [3] (Homo sapiens) of 0.71 µM.
On to `CC(C)(O)[C@H](F)CNC(=O)c1cnc(-c2cnn3cc(Cl)cnc23)cc1Nc1ccc(C(N)=O)cc1` [Example 33, (R)-4-((4-carbamoylphenyl)amino)-6-(6-chloropyrazolo[1,5-a]pyrimidin-3-yl)-N-(2-fluoro-3-hydroxy-3-methylbutyl) nicotinamide], for which, in series [1], the IC50 worked out at 0.002 µM. The Papp at 2 h, 3 µM in series [2] was under 1.5 ×10⁻⁶ cm/s. For the same compound, the concentration for a half-maximal effect (EC50) in series [3] (Homo sapiens) stood at 0.35 µM.
Turning to `CNC(=O)c1ccc(Nc2cc(-c3cnn4cc(Cl)cnc34)ncc2C(=O)NC[C@@H](F)C(C)(C)O)cc1` [Example 34, (R)-6-(6-chloropyrazolo[1,5-a]pyrimidin-3-yl)-N-(2-fluoro-3-hydroxy-3-methylbutyl)-4-((4-(methylcarbamoyl)phenyl)amino)nicotinamide], the IC50 in series [1] amounted to 0.002 µM. In series [2], the Papp at 2 h, 3 µM is under 1.5 ×10⁻⁶ cm/s. In series [3] (Homo sapiens), this compound showed an EC50 of 0.36 µM.
Taken in the same sequence, the figures for `CC(C)Nc1cc(-c2cnn3cc(Cl)cnc23)ncc1C(=O)NCC(F)C1(O)COC1` (centres unmarked) [Example 37, 6-(6-chloropyrazolo[1,5-a]pyrimidin-3-yl)-N-(2-fluoro-2-(3-hydroxyoxetan-3-yl)ethyl)-4-(isopropylamino)nicotinamide] were 0.006 µM, 4.8 ×10⁻⁶ cm/s and 0.7 µM.
On to `CC(C)(O)[C@H]1CC[C@H](NC(=O)c2cnc(-c3cnn4cc(Cl)cnc34)cc2NC2COC2)CC1` [Example 40, 6-(6-chloropyrazolo[1,5-a]pyrimidin-3-yl)-N-((1r,4r)-4-(2-hydroxypropan-2-yl)cyclohexyl)-4-(oxetan-3-ylamino)nicotinamide], for which, in series [1], the IC50 amounted to 0.004 µM. Further, the Papp at 2 h, 3 µM in series [2] was determined as 22.1 ×10⁻⁶ cm/s. In series [3] (Homo sapiens), this compound yielded a concentration giving a half-maximal response (EC50) of 1.72 µM.
In the case of `CC(C)(O)[C@H](F)CNC(=O)c1cnc(-c2cnn3cc(Cl)cnc23)cc1N[C@@H]1COC[C@H]1F` [Example 44, 6-(6-chloropyrazolo[1,5-a]pyrimidin-3-yl)-N—((R)-2-fluoro-3-hydroxy-3-methylbutyl)-4-(((3R,4S)-4-fluorotetrahydrofuran-3-yl)amino)nicotinamide], in series [1], the IC50 stood at 0.007 µM. Moreover, in series [2], the Papp at 2 h, 3 µM was determined as 5.3 ×10⁻⁶ cm/s. For the same compound, in series [3] (Homo sapiens), the 50% effective concentration (EC50) amounted to 2.73 µM.
For `CC(C)(O)CCNC(=O)c1cnc(-c2cnn3cc(Cl)cnc23)cc1NC1COC1` [Example 47, 6-(6-chloropyrazolo[1,5-a]pyrimidin-3-yl)-N-(3-hydroxy-3-methylbutyl)-4-(oxetan-3-ylamino)nicotinamide], the half-maximal inhibitory concentration (IC50) in series [1] worked out at 0.008 µM. Further, in series [2], the Papp at 2 h, 3 µM stood at 17.3 ×10⁻⁶ cm/s. In series [3] (Homo sapiens), this compound showed a half-maximal effective concentration (EC50) of 0.35 µM.
In the case of `CC(C)(O)[C@H](F)CNC(=O)c1cnc(-c2cnn3cc(Cl)cnc23)cc1Nc1cnn(C2COC2)c1` [Example 48, (R)-6-(6-chloropyrazolo[1,5-a]pyrimidin-3-yl)-N-(2-fluoro-3-hydroxy-3-methylbutyl)-4-((1-(oxetan-3-yl)-1H-pyrazol-4-yl)amino)nicotinamide], in series [1], the IC50 worked out at 0.001 µM. Besides, the apparent permeability (Papp) at 2 h, 3 µM in series [2] came to 2.6 ×10⁻⁶ cm/s. The compound further returned a concentration giving a half-maximal response (EC50) in series [3] (Homo sapiens) of 0.3 µM.
`CC(=O)N[C@H]1CC[C@H](NC(=O)c2cnc(-c3cnn4cc(C#N)cnc34)cc2NC(C)C)CC1` [Example 89, N-((1r,4r)-4-acetamidocyclohexyl)-6-(6-cyanopyrazolo[1,5-a]pyrimidin-3-yl)-4-(isopropylamino)nicotinamide]: in series [2], the apparent permeability (Papp) at 2 h, 3 µM was under 1.5 ×10⁻⁶ cm/s. This compound also yielded an EC50 in series [3] (Homo sapiens) of 2.96 µM.
On the same counts, the results for `CC(C)(F)CNc1cc(-c2cnn3cc(C#N)cnc23)ncc1C(=O)NC[C@@H](F)C(C)(C)O` [Example 91, (R)-6-(6-cyanopyrazolo[1,5-a]pyrimidin-3-yl)-4-((2-fluoro-2-methylpropyl)amino)-N-(2-fluoro-3-hydroxy-3-methylbutyl)nicotinamide] are 5 ×10⁻⁶ cm/s and 2.97 µM.
For `CC(C)(O)[C@H](F)CNC(=O)c1cnc(-c2cnn3cc(C#N)cnc23)cc1NC1CCC1` [Example 96, (R)-6-(6-cyanopyrazolo[1,5-a]pyrimidin-3-yl)-4-(cyclobutylamino)-N-(2-fluoro-3-hydroxy-3-methylbutyl)nicotinamide], the Papp at 2 h, 3 µM in series [2] was 8.3 ×10⁻⁶ cm/s. The EC50 in series [3] (Homo sapiens) was determined as 0.27 µM.
Take `CC(C)(O)[C@H](F)CNC(=O)c1cnc(-c2cnn3cc(C#N)cnc23)cc1NC1CCC(F)(F)C1O` (stereo partly drawn) [Example 107, 6-(6-cyanopyrazolo[1,5-a]pyrimidin-3-yl)-4-((3,3-difluoro-2-hydroxycyclopentyl)amino)-N—((R)-2-fluoro-3-hydroxy-3-methylbutyl)nicotinamide]: the Papp at 2 h, 3 µM in series [2] is under 1.5 ×10⁻⁶ cm/s. The compound also yielded an EC50 in series [3] (Homo sapiens) of 0.43 µM.

Source of the values: patent publication US10618903B2, “Heteroaryl substituted aminopyridine compounds” (BRISTOL-MYERS SQUIBB COMPANY, priority 2015, dated 2020).
